From ChEMBL document CHEMBL3244210, “Experimental antiulcer drugs. 1. Indole-1-alkanamides and pyrrole-1-alkanamides” (J Med Chem, 1977)
The source made the active and inactive calls. No cut-off for these calls is given here.

Tests used:
[1] = tested on: Rattus norvegicus; test: Antiulcer activity in po dosed albino rat pyloric ligation model assessed as inhibition of gastric secretion administered as single dose 1 to 24 hrs prior to ligation; assay type: functional, organism-based; details: Stomach
[2] = tested on: Rattus norvegicus; test: Antiulcer activity in sc dosed albino rat pyloric ligation model assessed as inhibition of gastric secretion administered as single dose 1 to 24 hrs prior to ligation; assay type: functional, organism-based; details: Stomach
[3] = species: Homo sapiens; test: Antagonist activity at histamine receptor (unknown origin) assessed as shift in histamine-induced response at 5 x 10 '-5 M relative to control
[4] = species: Homo sapiens; test: Antagonist activity at histamine receptor (unknown origin) assessed as shift in histamine-induced response at 10 '-5 M relative to control
[5] = tested on: Mus musculus; test: Anticholinergic activity in mouse assessed as mydriasis at 100 mg/kg, po measured after 1 to 24 hrs post dose; assay type: ADME, organism-based; parameters: dose 100 mg/kg, route oral; details: in vivo
[6] = Drug excretion in rat urine administered as single dose 1 to 24 hrs prior to ligation; assay type: ADME; details: in vivo
[7] = Toxicity in histamine-induced guinea pig assessed as change in rate of beating in right atrium at 10 ' -5 to 5 x 10' -5 M after 5 mins; assay type: tissue-based, Cavia porcellus, Cardiac atrium
[8] = species: Rattus norvegicus; test: animal or person; details: po, read-out: INH
[9] = species: Rattus norvegicus; test: animal or person; details: Stomach, po, read-out: INH
[10] = tested on: Rattus norvegicus; test: Antiulcer activity in albino rat pyloric ligation model assessed as elevation of gastric pH at 6.25 mg/kg, po administered as single dose during prior ligation (Rvb =1.1 no_unit); assay type: functional, Stomach
[11] = tested on: Rattus norvegicus; test: Antiulcer activity in albino rat pyloric ligation model assessed as inhibition of total acid output at 50 mg/kg, po administered as single dose 1 hr prior ligation relative to control; assay type: functional
[12] = tested on: Rattus norvegicus; test: Antiulcer activity in albino rat pyloric ligation model assessed as elevation of gastric pH at 25 mg/kg, po administered as single dose 1 hr prior ligation (Rvb =1.1 no_unit); assay type: functional, Stomach
[13] = tested on: Rattus norvegicus; test: Antiulcer activity in albino rat pyloric ligation model assessed as inhibition of gastric volume at 100 mg/kg, po administered as single dose during ligation relative to control; assay type: functional; details: Stomach
[14] = tested on: Rattus norvegicus; test: Antiulcer activity in albino rat pyloric ligation model assessed as inhibition of gastric volume at 200 mg/kg, po administered as single dose 1 hr prior ligation relative to control; assay type: functional; details: Stomach
[15] = tested on: Rattus norvegicus; test: Antiulcer activity in albino rat pyloric ligation model assessed as inhibition of gastric volume at 50 mg/kg, po administered as single dose 1 hr prior ligation relative to control; assay type: functional; details: Stomach
[16] = tested on: Rattus norvegicus; test: Antiulcer activity in albino rat pyloric ligation model assessed as inhibition of total acid output at 200 mg/kg, po administered as single dose 1 hr prior ligation relative to control; assay type: functional
[17] = tested on: Rattus norvegicus; test: Antiulcer activity in albino rat pyloric ligation model assessed as inhibition of total acid output at 25 mg/kg, po administered as single dose 1 hr prior ligation relative to control; assay type: functional
[18] = tested on: Rattus norvegicus; test: Antiulcer activity in albino rat pyloric ligation model assessed as inhibition of total acid output at 100 mg/kg, po administered as single dose 24 hrs prior ligation relative to control; assay type: functional
[19] = tested on: Rattus norvegicus; test: Antiulcer activity in albino rat pyloric ligation model assessed as elevation of gastric pH at 100 mg/kg, po administered as single dose during prior ligation (Rvb =1.1 no_unit); assay type: functional, Stomach
[20] = tested on: Canis familiaris; test: Antisecretory activity in beagle dog with chronic gastric fistula assessed as inhibition of histamine-induced gastric secretion at 50 mg/kg, po measured every 15 mins post histamine treatment; assay type: functional, organism-based; parameters: dose 50 mg/kg; details: Canis lupus familiaris, Stomach
[21] = tested on: Rattus norvegicus; test: Antiulcer activity in albino rat pyloric ligation model assessed as elevation of gastric pH at 100 mg/kg, po administered as single dose 24 hrs prior ligation (Rvb =1.1 no_unit); assay type: functional, Stomach
[22] = tested on: Rattus norvegicus; test: Antiulcer activity in albino rat pyloric ligation model assessed as inhibition of gastric volume at 25 mg/kg, po administered as single dose 1 hr prior ligation relative to control; assay type: functional; details: Stomach
[23] = tested on: Rattus norvegicus; test: Antiulcer activity in albino rat pyloric ligation model assessed as inhibition of total acid output at 100 mg/kg, po administered as single dose 1 hr prior ligation relative to control; assay type: functional
[24] = tested on: Rattus norvegicus; test: Antiulcer activity in albino rat pyloric ligation model assessed as inhibition of gastric volume at 100 mg/kg, po administered as single dose 1 hr prior ligation relative to control; assay type: functional; details: Stomach
[25] = tested on: Rattus norvegicus; test: Antiulcer activity in albino rat pyloric ligation model assessed as elevation of gastric pH at 50 mg/kg, po administered as single dose 1 hr prior ligation (Rvb =1.1 no_unit); assay type: functional, Stomach
[26] = tested on: Rattus norvegicus; test: Antiulcer activity in albino rat pyloric ligation model assessed as elevation of gastric pH at 100 mg/kg, po administered as single dose 1 hr prior ligation (Rvb =1.1 no_unit); assay type: functional, Stomach
[27] = tested on: Rattus norvegicus; test: Antiulcer activity in albino rat pyloric ligation model assessed as inhibition of total acid output at 100 mg/kg, po administered as single dose during ligation relative to control; assay type: functional
[28] = tested on: Rattus norvegicus; test: Antiulcer activity in albino rat pyloric ligation model assessed as inhibition of gastric volume at 100 mg/kg, po administered as single dose 24 hrs prior ligation relative to control; assay type: functional; details: Stomach
[29] = tested on: Rattus norvegicus; test: Antiulcer activity in albino rat pyloric ligation model assessed as elevation of gastric pH at 200 mg/kg, po administered as single dose 1 hr prior ligation (Rvb =1.1 no_unit); assay type: functional, Stomach
[30] = tested on: Canis familiaris; test: Toxicity in beagle dog at 50 mg/kg, po; assay type: organism-based, Canis lupus familiaris; parameters: dose 50 mg/kg, route oral; details: in vivo

For `Cc1c[nH]c2ccccc12`, the inhibition [1] was “Active” and the inhibition [2] was “Active”.
`CNC(=S)NCCSCc1[nH]cnc1C` showed a fold change (FC) [3] of 38 and a fold change (FC) [4] of 11.
With `Cc1c(CO)n(CCC(N)=O)c2ccccc12` the inhibition [1] was “inactive” and the inhibition [2] was “inactive”.
In the case of `Cc1[nH]c2ccccc2c1C`, the Activity [5] is reported as “Non-toxic”, the inhibition [1] is reported as “Active” and the Drug excretion [6] is reported as “metabolite_detected”. For the same compound, the Activity [7] was “Non-toxic” and the inhibition [2] was “Active”.
For `Cc1c(C)n(CCCC(N)=O)c2ccccc12`, the inhibition [1] was “Active” and the inhibition [2] was “Active”.
In the case of `CCc1c(C)c2ccccc2n1CCC(N)=O`, the inhibition [1] is reported as “inactive” and the inhibition [2] is reported as “inactive”.
Compound `CN1[C@@H]2CC[C@H]1CC(OC(=O)[C@H](CO)c1ccccc1)C2` (stereo partly drawn) [ENDO-ATROPINE] has an inhibition in vivo at 6.25 mg/kg [8] of 58%, an inhibition in vivo at 6.25 mg/kg [9] of 43% and a pH [10] of 1.5.
With `Cc1ccc(C)n1CC(N)=O` the inhibition [1] was “inactive” and the inhibition [2] was “inactive”.
For `Cc1cc2ccccc2n1C`, the inhibition [1] was “inactive” and the inhibition [2] was “inactive”.
In the case of `Cc1c(CO)c2ccccc2n1CCCC(N)=O`, the inhibition [1] is reported as “inactive” and the inhibition [2] is reported as “inactive”.
For `NC(=O)Cn1ccc2ccccc21`, the inhibition [1] was “inactive” and the inhibition [2] was “inactive”.
For `Cc1cc2ccccc2n1CCC(N)=O`, the inhibition [1] was “inactive” and the inhibition [2] was “inactive”.
For `Cc1c(C)n(CC(N)=O)c2ccccc12`, the inhibition in vivo at 50 mg/kg [11] was 69%, the pH [12] was 2.6 and the inhibition in vivo at 100 mg/kg [13] was 32%. The Activity [5] was “Non-toxic”, the inhibition in vivo at 200 mg/kg [14] was 56% and the inhibition [1] was “Active”. The inhibition in vivo at 50 mg/kg [15] was 39%, the inhibition in vivo at 200 mg/kg [16] was 88% and the inhibition in vivo at 25 mg/kg [17] was 47%. The inhibition in vivo at 100 mg/kg [18] was 69%, the pH [19] was 1.5 and the Activity [20] was “Active”. The pH [21] was 3.2, the inhibition in vivo at 25 mg/kg [22] was 26% and the inhibition in vivo at 100 mg/kg [23] was 85%. For the same compound, the inhibition in vivo at 100 mg/kg [24] was 27%, the pH [25] was 3 and the Activity [7] was “Non-toxic”. For the same compound, the inhibition [2] was “Active”, the pH [26] was 6 and the inhibition in vivo at 100 mg/kg [27] was 52%. The inhibition in vivo at 100 mg/kg [28] was 44%, the pH [29] was 6.7 and the Activity [30] was “Toxic”.
With `Cc1cn(CC(N)=O)c2ccccc12` the inhibition [1] was “inactive” and the inhibition [2] was “inactive”.
With `Cc1cc2ccccc2[nH]1` the inhibition [1] was “Active” and the inhibition [2] was “Active”.
In the case of `Cc1ccc(C)n1CCC(N)=O`, the inhibition [1] is reported as “inactive” and the inhibition [2] is reported as “inactive”.
With `Cc1c(C)c(C)n(CC(N)=O)c1C` the Activity [5] was “Non-toxic”, the inhibition [1] was “inactive” and the Activity [7] was “Non-toxic”. The inhibition [2] was “inactive”.
For `Cc1cn(CCC(N)=O)c2ccccc12`, the inhibition [1] was “inactive” and the inhibition [2] was “inactive”.
In the case of `Cc1c(C)n(CCC(N)=O)c2ccccc12`, the inhibition [1] is reported as “Active” and the inhibition [2] is reported as “Active”.
For `c1ccc2[nH]ccc2c1`, the inhibition [1] was “Active” and the inhibition [2] was “Active”.
For `Cc1c(CO)c2ccccc2n1CC(N)=O`, the inhibition [1] was “inactive” and the inhibition [2] was “Active”.
In the case of `CCc1c(C)n(CC(N)=O)c2ccccc12`, the inhibition [1] is reported as “inactive” and the inhibition [2] is reported as “inactive”.
With `CN/C(=N\CCSCc1nc[nH]c1C)NC#N` [CIMETIDINE] the inhibition in vivo at 100 mg/kg [23] was 37%, the inhibition in vivo at 100 mg/kg [24] was 14% and the pH [26] was 2.1.
With `Cc1c(CO)c2ccccc2n1CCC(N)=O` the inhibition [1] was “inactive” and the inhibition [2] was “Active”.
With `Cc1cc2ccccc2n1CC(N)=O` the inhibition [1] was “inactive” and the inhibition [2] was “inactive”.
For `Cc1c(C)c(C)n(CCC(N)=O)c1C`, the inhibition [1] was “inactive” and the inhibition [2] was “inactive”.
For `CCc1c(C)n(CCC(N)=O)c2ccccc12`, the inhibition [1] was “inactive” and the inhibition [2] was “inactive”.
For `CCc1c(C)c2ccccc2n1CC(N)=O`, the inhibition [1] was “inactive” and the inhibition [2] was “inactive”.
